Measurements: patent publication US9079901B2, “Fused heterocyclic compounds as ion channel modulators” (Gilead Sciences, Inc., priority 2010, dated 2015)

Biological target: wild-type human cardiac sodium channel, hNav1.5 (late sodium current) in HEK293 cells (Homo sapiens, UniProt Q14524)
Experiment: Late INa screening assay (automated whole-cell patch clamp, PatchXpress)
Type: cell-based
Details: HEK293, compound at 1 μM; late INa generated with 10 μM Tefluthrin (or 50 nM ATX II); HEK293 hNav1.5; read-out: Late INa 1 μM (percent block of late INa)
How it was run: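 Percent block was derived from mean current 225–250 ms into a 250 ms depolarisation to −20 mV (holding −120 mV, every 10 s), normalised to the current left in Na-free solution. Whole-cell recordings came from HEK293 cells stably expressing α-subunit-only hNav1.5, at 24–27 °C. Late current was enhanced with 10 μM tefluthrin or 50 nM ATX II, then compound (typically 10 μM) was added three times over 7–8 min.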

wild-type human cardiac sodium channel, hNav1.5 (late sodium current) in HEK293 cells, sequence (Q14524 whole entry): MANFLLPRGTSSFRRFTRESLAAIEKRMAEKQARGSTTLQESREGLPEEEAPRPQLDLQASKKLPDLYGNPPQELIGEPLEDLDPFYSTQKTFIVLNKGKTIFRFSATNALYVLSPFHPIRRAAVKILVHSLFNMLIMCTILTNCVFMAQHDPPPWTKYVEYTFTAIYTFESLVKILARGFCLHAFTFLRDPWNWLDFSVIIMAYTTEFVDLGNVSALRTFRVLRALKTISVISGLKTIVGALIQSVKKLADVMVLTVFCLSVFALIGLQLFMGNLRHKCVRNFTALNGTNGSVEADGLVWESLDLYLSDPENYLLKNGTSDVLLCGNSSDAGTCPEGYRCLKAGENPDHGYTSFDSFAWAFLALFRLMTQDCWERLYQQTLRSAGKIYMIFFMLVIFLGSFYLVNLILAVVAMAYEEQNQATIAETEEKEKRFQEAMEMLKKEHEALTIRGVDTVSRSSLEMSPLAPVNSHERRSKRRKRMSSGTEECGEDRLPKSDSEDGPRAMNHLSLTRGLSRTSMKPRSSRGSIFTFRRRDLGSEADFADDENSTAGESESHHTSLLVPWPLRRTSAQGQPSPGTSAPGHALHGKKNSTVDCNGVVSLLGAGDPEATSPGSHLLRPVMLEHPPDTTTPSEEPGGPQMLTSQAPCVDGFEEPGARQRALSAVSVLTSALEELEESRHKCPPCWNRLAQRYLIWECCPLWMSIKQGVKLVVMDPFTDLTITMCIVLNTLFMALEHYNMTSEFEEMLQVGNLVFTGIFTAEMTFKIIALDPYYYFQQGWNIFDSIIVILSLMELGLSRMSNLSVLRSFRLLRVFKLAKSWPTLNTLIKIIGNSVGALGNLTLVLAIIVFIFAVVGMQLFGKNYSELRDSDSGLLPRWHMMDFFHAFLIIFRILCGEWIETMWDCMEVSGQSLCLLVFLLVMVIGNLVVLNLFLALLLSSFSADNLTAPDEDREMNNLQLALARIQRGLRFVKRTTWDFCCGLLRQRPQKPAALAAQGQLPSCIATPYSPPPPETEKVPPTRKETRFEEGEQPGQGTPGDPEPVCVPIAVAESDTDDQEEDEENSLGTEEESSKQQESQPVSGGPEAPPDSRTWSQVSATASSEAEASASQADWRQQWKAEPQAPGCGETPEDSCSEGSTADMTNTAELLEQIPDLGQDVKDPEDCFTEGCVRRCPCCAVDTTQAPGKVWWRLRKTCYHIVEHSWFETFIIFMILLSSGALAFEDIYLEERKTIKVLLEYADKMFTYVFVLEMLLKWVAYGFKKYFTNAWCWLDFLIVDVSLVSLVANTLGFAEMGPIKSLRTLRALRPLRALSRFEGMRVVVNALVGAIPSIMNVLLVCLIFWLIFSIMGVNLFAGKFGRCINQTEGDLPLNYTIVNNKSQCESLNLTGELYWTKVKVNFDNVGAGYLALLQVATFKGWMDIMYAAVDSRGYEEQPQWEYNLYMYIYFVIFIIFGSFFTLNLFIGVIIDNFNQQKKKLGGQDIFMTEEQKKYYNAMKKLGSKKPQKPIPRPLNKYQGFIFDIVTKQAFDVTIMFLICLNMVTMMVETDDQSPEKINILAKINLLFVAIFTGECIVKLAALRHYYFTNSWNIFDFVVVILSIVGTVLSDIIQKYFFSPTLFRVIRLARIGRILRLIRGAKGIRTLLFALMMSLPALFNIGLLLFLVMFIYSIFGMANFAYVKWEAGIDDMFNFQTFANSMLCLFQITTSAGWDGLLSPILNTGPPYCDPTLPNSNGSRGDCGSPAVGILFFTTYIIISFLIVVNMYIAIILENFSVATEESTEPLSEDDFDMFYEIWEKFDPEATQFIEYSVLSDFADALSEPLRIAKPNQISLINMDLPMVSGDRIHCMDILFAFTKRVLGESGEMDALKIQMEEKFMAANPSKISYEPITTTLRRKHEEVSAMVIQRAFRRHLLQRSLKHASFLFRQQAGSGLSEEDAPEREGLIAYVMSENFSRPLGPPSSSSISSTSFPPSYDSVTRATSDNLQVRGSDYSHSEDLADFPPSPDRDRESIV

Row | SMILES | inhibition at 1 µM [%]
1 | CCOc1ccccc1OCc1nc(Cn2nc3ccc(-c4ccc(OC(F)(F)F)cc4)cn3c2=O)no1 [compound 176, 2-((5-((2-ethoxyphenoxy)methyl)-1,2,4-oxadiazol-3-yl)methyl)-6-(4-(trifluoromethoxy)phenyl)-[1,2,4]triazolo[4,3-a]pyridin-3(2H)-one] | 25.5
2 | O=c1n(Cc2ncon2)nc2ccc(-c3ccc(OC(F)(F)F)cc3)cn12 [compound 27, 2-((1,2,4-oxadiazol-3-yl)methyl)-6-(4-(trifluoromethoxy)phenyl)-[1,2,4]triazolo[4,3-a]pyridin-3(2H)-one] | 11.2
3 | Cn1ccc(Cn2nc3ccc(-c4ccc(OC(F)(F)F)cc4)cn3c2=O)n1 [compound 165, 2-((1-methyl-1H-pyrazol-3-yl)methyl)-6-(4-(trifluoromethoxy)phenyl)-[1,2,4]triazolo[4,3-a]pyridin-3(2H)-one] | 10.8
4 | CC(C)(C)c1cnc(Cn2nc3ccc(-c4ccc(C(F)(F)F)cc4)cn3c2=O)o1 [compound 184, 2-((5-tert-butyloxazol-2-yl)methyl)-6-(4-(trifluoromethyl)phenyl)-[1,2,4]triazolo[4,3-a]pyridin-3(2H)-one] | 18.9
5 | Cc1cc(-c2ccc(OC(F)(F)F)cc2)cn2c(=O)[nH]nc12 [compound 196, 8-methyl-6-(4-(trifluoromethoxy)phenyl)-[1,2,4]triazolo[4,3-a]pyridin-3(2H)-one] | 38.3
6 | O=c1n(-c2ccccn2)nc2ccc(-c3ccc(OC(F)(F)F)cc3)cn12 [compound 34, 2-(pyridin-2-yl)-6-(4-(trifluoromethoxy)phenyl)-[1,2,4]triazolo[4,3-a]pyridin-3(2H)-one] | 26
